Entries after “also recorded” stand apart in the source; their conditions may differ. Where no end group is shown, it is not given here.
Experiments:
[1] = system: Cx43 hemichannels in astrocytes; conditions: hippocampal slices; ref Rouach et al., 2008, Supplementary Data Figure S5; cited from earlier work
Procedure: The inhibitory effect of Gap19 in situ was then tested by performing the Etd^+ uptake assay in acute hippocampal brain slices from GFAP-eGFP transgenic mice. […] This increase ... || Gap19 is a peptide that corresponds to a sequence on the cytoplasmic loop (CL) of Cx43. Its sequence is part of the L2 domain that is involved in interactions of the CL with the CT-tail of Cx43. […] This differential effect is most probably the consequence of distinct channel configurations of hemichannels as compared ...

hemichannels = conditions: cited from earlier work; for Hemichannel-only effect: ref not given
Text: Gap junction channels form junctional plaques that are composed of two docked hemichannels oligomerized from six Cx protein subunits. […] Stehberg and collaborators have used TAT-L2 for local injection in the amygdala in in vivo animal studies on fear memory (Stehberg et al., [2012]).

Gap19 = Gap19 (UniProt P17302); conditions: cited from earlier work
Cx43 hemichannels [2] = biological target: T1, Cx43 hemichannels (Mus musculus, UniProt P23242); experiment: Etd+ uptake in cultured astrocytes treated with TNF-α/IL-1β; assay type: cell-based, mouse (OF1); design: endogenous in cells; host or cells: primary cortical astrocytes from newborn OF1 mice; conditions: astrocyte cultures, "in the 250 μM range", read-out: Half-maximal effect concentration, hemichannels opened with TNF-α/IL-1β
Procedure: (§1) Primary astrocyte cultures were prepared from the cortex of newborn (1–2 days) OF1 mice as described previously (Meme et al., [2006]). Briefly, cells were seeded into 100-mm diameter plastic dishes (Nunc, Roskilde, Denmark) at the density of 3 × 10^6 cells/dish in DMEM (Sigma-Aldrich, St-Louis MO, USA), supplemented with penicillin (5 U/ml), streptomycin (5 μg/ml) (Invitrogen, Carlsbad, CA, USA) and 10% FCS (Hyclone, Logan, UT, USA). The medium was changed twice a week. When cells reached confluence, around 10 days in vitro (DIV), they were harvested with trypsin-EDTA (Invitrogen). […]
Hemichannel activity in cultured astrocytes was induced either by treatment with two pro-inflammatory cytokines, TNF-α and IL-1β (Retamal et al., [2007]) or by exposing the cells to a Ca^2+-free solution (Stout et al., [2002]). […] Captured images of Etd^+ uptake were analyzed with the Image J program (NIH software).
(§2) The data are expressed as mean ± s.e.m., with “n” denoting the number of independent experiments. […] In experiments where the effects of different treatments were assessed on normalized data, non-parametric ANOVA Kruskal-Wallis tests were performed. […] Unless stated otherwise, significance as compared to control condition based on the raw data (before normalization) was assessed by two-tailed Wilcoxon signed-ranked tests. […]

Cx43 hemichannels [3] = biological target: T1, Cx43 hemichannels; experiment: Etd+ uptake in astrocytes of acute hippocampal slices, Ca2+-free solution; assay type: cell-based, mouse (GFAP-eGFP); design: performing the Etd^+ uptake assay in acute hippocampal brain slices from GFAP-eGFP transgenic mice; from tissue; host or cells: acute hippocampal slices of GFAP-eGFP mice (GFP-positive astrocytes); conditions: zero extracellular Ca2+, "in the 250 μM range", read-out: Half-maximal effect concentration, zero extracellular Ca2+ in brain slices
Procedure: GFAP-eGFP mice (Nolte et al., [2001]) were decapitated and their brains were rapidly removed. Hippocampi were dissected and placed in ice-cold artificial cerebrospinal fluid (ACSF) equilibrated with 95% O2–5% CO2. Transverse hippocampal slices (300–400 μm thick) were cut on a vibroslicer (Leica VT 1000S, Wetzlar, Germany) and transferred to a holding chamber where they rested on a nylon mesh, submerged in oxygenated ACSF at room temperature for a stabilization period of 45 min before recodings. The ACSF solution contained in mM: NaCl 134; KCl 2.8; NaHCO3 29; NaH2PO4 1.1; glucose 12; MgSO4 1.5; CaCl2 2.5.
In slices derived from GFAP-eGFP mice, astrocytes were identified by GFP fluorescence and hemichannel activity was investigated. […] In order to be sure that we were quantifying Etd^+ uptake in astrocytes, in this study hemichannel activity was only considered in GFP-positive cells. […] Fluorescence was quantified in arbitrary units (AU), Image J program (NIH software). Dye uptake intensity was evaluated as the difference (F—F0) between the fluorescence (F) from astrocytes (20—30 cells per slice) and the background fluorescence (F0) measured in the same field where no labeled cells were detected. […]
The data are expressed as mean ± s.e.m., with “n” denoting the number of independent experiments. […]

Cx43 hemichannels [4] = biological target: T1, Cx43 hemichannels; experiment: Glutamate-triggered ATP release in cultured cortical astrocytes; assay type: cell-based, mouse (OF1); design: endogenous in cells; host or cells: primary cortical astrocytes from newborn OF1 mice; conditions: primary cortical astrocyte cultures; glutamate 100 μM, 15 min; Gap19 30 min pre-incubation; n = 6 independent experiments; read-out: IC50 / half-maximal effect concentration for glutamate-triggered ATP release
Procedure: as §1, §2
While in vivo astrocytes express two major Cxs, Cx43 and Cx30, astrocytes in primary culture offer the advantage that only one of them is expressed, namely Cx43 (Giaume et al., [1991a]). Indeed, Cx30 is detected in astrocytes only either after 10–11 weeks of solo-culture (Kunzelmann et al., [1999]) or in 3 week-old astrocytes after 1 week of co-culture with neurons (Koulakoff et al., [2008]). […]

[5] = Brain TAT immunostaining 1 h after intra-carotid injection; assay type: in vivo, mouse (C57Bl6)
Procedure: Two different approaches were used for in vivo delivery of TAT-Gap19. For acute experiments, 4 months old C57Bl6 male mice were subjected to intra-carotid injection of 45 mg/kg TAT-Gap19 (GenScript, Pistcataway, NJ, US) dissolved in saline. After 1 h the mice were deeply anesthetized with sodium pentobarbital (120 mg/kg intraperitoneally) and were transcardially perfused with cold ice phosphate-buffered saline (PBS) followed by perfusion with 10% formalin (Sigma-Aldrich, Oakville, Canada). Brains were removed and stored in 10% formalin and the next day were cryoprotected in 30% sucrose in PBS solution. Cortical brain sections, 10 μm thick, were collected and mounted sequentially on glass microscope slides. Immunohistochemistry was performed on the sections as previously described (Ozog et al., [2002]; Nakase et al., [2004]; Kozoriz et al., [2010]). Ten μm thick glass mounted sections were rehydrated in PBS and then blocked in PBS pH 7.4 containing 0.3% Triton-X-100 (TX100, Fisher Scientific) and 2% bovine serum albumin (BSA; Invitrogen, Canada) for 1 h, and incubated overnight in PBS containing 1.0% BSA, 0.3% TX100 and anti-TAT primary antibody (1/100 dilution; Cat # CB0888, Cell Applications, Inc., USA). The following day, the slices were washed with PBS (3 × 10 min) and subsequently incubated for 1 h with secondary antibody (anti-mouse IgG tagged with Alexa 488; Molecular Probes, USA) in PBS containing 1% BSA, 0.3% TX100. Slices were then rinsed 3 times for 10 min with PBS and mounted with ProLong Gold antifade reagent with DAPI. Images were obtained using the same exposure times on a Ziess Axiophot Epifluorescent microscope, Zeiss Canada, Toronto).

T1 sequence (P23242 whole entry): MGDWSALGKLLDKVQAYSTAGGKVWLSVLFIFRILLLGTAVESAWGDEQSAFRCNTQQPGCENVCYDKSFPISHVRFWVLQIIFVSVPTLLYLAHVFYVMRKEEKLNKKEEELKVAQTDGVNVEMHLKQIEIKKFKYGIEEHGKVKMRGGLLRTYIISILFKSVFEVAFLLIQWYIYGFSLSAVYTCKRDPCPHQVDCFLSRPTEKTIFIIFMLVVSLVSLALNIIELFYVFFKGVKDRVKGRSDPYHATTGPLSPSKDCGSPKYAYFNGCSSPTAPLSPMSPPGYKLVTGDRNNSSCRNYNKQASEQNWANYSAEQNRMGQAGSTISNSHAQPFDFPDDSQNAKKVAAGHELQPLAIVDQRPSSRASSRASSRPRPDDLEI
Sequence of Connexin43 C-terminal tail (P17302 232-382): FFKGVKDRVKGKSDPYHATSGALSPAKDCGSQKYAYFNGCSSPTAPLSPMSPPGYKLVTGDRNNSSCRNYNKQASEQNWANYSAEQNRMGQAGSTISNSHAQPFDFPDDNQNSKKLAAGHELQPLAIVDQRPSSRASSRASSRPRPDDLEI
Sequence of Gap19 (P17302 whole entry, looked up): as the sequence (P23242 whole entry) above, with E124D, V164I, R243K, T251S, P253A, S257A, P263Q, S341N, A344S, V347L counted along it

In the case of `CC1(C)[C@@H](OC(=O)CCC(=O)O)CC[C@]2(C)[C@H]3C(=O)C=C4[C@@H]5C[C@@](C)(C(=O)O)CC[C@]5(C)CC[C@@]4(C)[C@]3(C)CC[C@@H]12` [carbenoxolone], the “Block of hemichannel activity induced by calcium-free solution” value [1] is listed as “can be inhibited by carbenoxolone in hippocampal slices; also recorded: blocks hemichannel activity induced by a calcium free solution” and the “Discrimination between gap junctions and hemichannels” value (hemichannels; ref not printed at this statement (nearby: Takeuchi et al., 2011)) is listed as “poorly discriminate between gap junctions and hemichannels”.

In the case of `[Gd+3]` [gadolinium (Gd^3+), gadolinium], the Hemichannel-only effect (hemichannels) is listed as “supposed to affect only hemichannels”.

In the case of `[La+3]` [lanthanum (La^3+), lanthanum], the Hemichannel-only effect (hemichannels) is given as “supposed to affect only hemichannels”.

For “Connexin43 C-terminal tail (from UniProt P17302)”, the Kd (Gap19) is listed as 2.5 µM.

In the case of KQIEIKKFK [Gap19, KQIEIKKFK], the IC50 (Cx43 hemichannels [2]) is reported as ~250 µM, the IC50 (Cx43 hemichannels [3]) is reported as ~250 µM and the IC50 (Cx43 hemichannels [4]) is reported as 142 µM.

In the case of “YGRKKRRQRRRKQIEIKKFK [TAT-Gap19, YGRKKRRQRRR-KQIEIKKFK]”, the “TAT immunoreactivity in brain, 1 h after carotid injection” value ([5]; 45 mg/kg intra-carotid, 4 months old male mice, 1 h, anti-TAT antibody, compared with vehicle (PBS)) is reported as “readily detected throughout the brain; also recorded: clear TAT immunoreactivity”, the “TAT peptide in GFAP-positive astrocytes (double labeling anti-TAT/anti-GFAP)” value ([5]; 45 mg/kg intra-carotid, 1 h, cortex) is reported as “some GFAP-positive astrocytes (white arrows) have taken up the TAT peptide; also recorded: reaches GFAP-positive astrocytes, however, several TAT-positive cells are apparently not GFAP-positive” and the Blood-brain barrier crossing ([5]; in vivo injection, immunostaining for TAT moiety, intra-carotid and i.v. experiments taken together) is reported as “traverses the blood-brain barrier and is retained in the cells; also recorded: can successfully cross the blood-brain barrier”.
